Measurements as given in the supplement of paper PMC8612539.
In brackets after ≈: the same amount, converted by molar mass.

Tested on: Pasteurella multocida
Assay: minimum inhibitory concentration (MIC)
Experimental: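 Broth microdilution MIC (Sensititre BOPO7F bovine plate, CLSI methods) of 19 antimicrobials against field isolates of P. multocida, M. haemolytica, H. somni (deep nasopharyngeal swabs) and E. coli, Enterococcus spp. (rectal swabs) from weaned dairy heifers. Incubation 16-24 h at 35 C. MIC is the lowest concentration preventing visible growth. Values with <= or > lie at the tested range limits. Trimethoprim-sulfamethoxazole is given as the trimethoprim component of a 1:19 mixture.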

CC[C@H]1OC(=O)C[C@@H](O)[C@H](C)[C@@H](O[C@@H]2O[C@H](C)[C@@H](O[C@H]3C[C@@](C)(O)[C@@H](O)[C@H](C)O3)[C@H](N(C)C)[C@H]2O)[C@@H](CC=O)C[C@@H](C)C(=O)/C=C/C(C)=C/[C@@H]1CO[C@@H]1O[C@H](C)[C@@H](O)[C@@H](OC)[C@H]1OC [Tylosin]
Conditions | minimum inhibitory concentration [µg/mL]
isolate (source animal id): 10 | > 32
isolate (source animal id): 11 | > 32
isolate (source animal id): 12 | > 32
isolate (source animal id): 19 | > 32
isolate (source animal id): 23 | > 32
isolate (source animal id): 26 | > 32
isolate (source animal id): 98 | > 32
isolate (source animal id): 104 | > 32
isolate (source animal id): 115 | > 32
isolate (source animal id): 117 | > 32
isolate (source animal id): 118 | > 32
isolate (source animal id): 121 | > 32
isolate (source animal id): 124 | > 32
isolate (source animal id): 125 | > 32
isolate (source animal id): 128 | > 32
isolate (source animal id): 131 | > 32
isolate (source animal id): 135 | > 32
isolate (source animal id): 136 | > 32
isolate (source animal id): 140 | > 32
isolate (source animal id): 144 | > 32
isolate (source animal id): 146 | > 32
isolate (source animal id): 150 | > 32
isolate (source animal id): 151 | > 32
isolate (source animal id): 153 | > 32
isolate (source animal id): 155 | > 32
isolate (source animal id): 157 | > 32
isolate (source animal id): 160 | > 32
isolate (source animal id): 164 | > 32
isolate (source animal id): 165 | > 32
isolate (source animal id): 167 | > 32
isolate (source animal id): 168 | > 32
isolate (source animal id): 169 | > 32
isolate (source animal id): 170 | > 32
isolate (source animal id): 171 | > 32
isolate (source animal id): 172 | > 32
isolate (source animal id): 173 | > 32
isolate (source animal id): 174 | > 32
isolate (source animal id): 175 | > 32
isolate (source animal id): 176 | > 32
isolate (source animal id): 177 | > 32
isolate (source animal id): 178 | > 32
isolate (source animal id): 179 | 32 (≈ 34.9 µM)
isolate (source animal id): 182 | > 32
isolate (source animal id): 192 | > 32
isolate (source animal id): 193 | 32 (≈ 34.9 µM)
isolate (source animal id): 195 | 32 (≈ 34.9 µM)
isolate (source animal id): 196 | > 32
isolate (source animal id): 197 | > 32
isolate (source animal id): 198 | > 32
isolate (source animal id): 199 | > 32
isolate (source animal id): 200 | > 32
isolate (source animal id): 201 | > 32
isolate (source animal id): 203 | 32 (≈ 34.9 µM)
isolate (source animal id): 204 | > 32
isolate (source animal id): 205 | > 32
isolate (source animal id): 206 | > 32
isolate (source animal id): 207 | 32 (≈ 34.9 µM)
isolate (source animal id): 208 | 32 (≈ 34.9 µM)
isolate (source animal id): 209 | 32 (≈ 34.9 µM)
isolate (source animal id): 210 | > 32
isolate (source animal id): 213 | 32 (≈ 34.9 µM)
isolate (source animal id): 216 | > 32
isolate (source animal id): 223 | > 32
isolate (source animal id): 227 | 32 (≈ 34.9 µM)
isolate (source animal id): 229 | > 32
isolate (source animal id): 233 | > 32
isolate (source animal id): 234 | > 32
isolate (source animal id): 237 | > 32
isolate (source animal id): 241 | > 32
isolate (source animal id): 245 | > 32
isolate (source animal id): 247 | > 32
isolate (source animal id): 250 | > 32
isolate (source animal id): 254 | > 32
isolate (source animal id): 255 | > 32
isolate (source animal id): 258 | 32 (≈ 34.9 µM)
isolate (source animal id): 261 | > 32
isolate (source animal id): 262 | > 32
isolate (source animal id): 269 | > 32
isolate (source animal id): 270 | > 32
isolate (source animal id): 274 | > 32
isolate (source animal id): 275 | > 32
isolate (source animal id): 276 | > 32
isolate (source animal id): 277 | > 32
isolate (source animal id): 278 | > 32
isolate (source animal id): 279 | > 32
isolate (source animal id): 280 | > 32
isolate (source animal id): 284 | > 32
isolate (source animal id): 285 | > 32
isolate (source animal id): 287 | > 32
isolate (source animal id): 290 | > 32
isolate (source animal id): 294 | > 32
isolate (source animal id): 295 | > 32
isolate (source animal id): 296 | > 32
isolate (source animal id): 307 | > 32
isolate (source animal id): 310 | > 32
isolate (source animal id): 311 | > 32
isolate (source animal id): 312 | > 32
isolate (source animal id): 313 | > 32
isolate (source animal id): 315 | > 32
isolate (source animal id): 316 | > 32

COc1cc(NS(=O)(=O)c2ccc(N)cc2)nc(OC)n1 [sulfadimethoxine]
Conditions | minimum inhibitory concentration [µg/mL]
isolate (source animal id): 10 | > 256
isolate (source animal id): 11 | > 256
isolate (source animal id): 12 | > 256
isolate (source animal id): 19 | > 256
isolate (source animal id): 23 | > 256
isolate (source animal id): 26 | > 256
isolate (source animal id): 98 | > 256
isolate (source animal id): 104 | > 256
isolate (source animal id): 115 | > 256
isolate (source animal id): 117 | > 256
isolate (source animal id): 118 | > 256
isolate (source animal id): 121 | > 256
isolate (source animal id): 124 | > 256
isolate (source animal id): 125 | > 256
isolate (source animal id): 128 | > 256
isolate (source animal id): 131 | > 256
isolate (source animal id): 135 | > 256
isolate (source animal id): 136 | > 256
isolate (source animal id): 140 | > 256
isolate (source animal id): 144 | > 256
isolate (source animal id): 146 | > 256
isolate (source animal id): 150 | > 256
isolate (source animal id): 151 | > 256
isolate (source animal id): 153 | > 256
isolate (source animal id): 155 | > 256
isolate (source animal id): 157 | > 256
isolate (source animal id): 160 | > 256
isolate (source animal id): 164 | > 256
isolate (source animal id): 165 | > 256
isolate (source animal id): 167 | > 256
isolate (source animal id): 168 | > 256
isolate (source animal id): 169 | > 256
isolate (source animal id): 170 | > 256
isolate (source animal id): 171 | > 256
isolate (source animal id): 172 | > 256
isolate (source animal id): 173 | > 256
isolate (source animal id): 174 | > 256
isolate (source animal id): 175 | > 256
isolate (source animal id): 176 | > 256
isolate (source animal id): 177 | > 256
isolate (source animal id): 178 | > 256
isolate (source animal id): 179 | > 256
isolate (source animal id): 182 | > 256
isolate (source animal id): 192 | > 256
isolate (source animal id): 193 | > 256
isolate (source animal id): 195 | > 256
isolate (source animal id): 196 | > 256
isolate (source animal id): 197 | > 256
isolate (source animal id): 198 | > 256
isolate (source animal id): 199 | > 256
isolate (source animal id): 200 | > 256
isolate (source animal id): 201 | > 256
isolate (source animal id): 203 | > 256
isolate (source animal id): 204 | > 256
isolate (source animal id): 205 | > 256
isolate (source animal id): 206 | > 256
isolate (source animal id): 207 | > 256
isolate (source animal id): 208 | > 256
isolate (source animal id): 209 | > 256
isolate (source animal id): 210 | > 256
isolate (source animal id): 213 | > 256
isolate (source animal id): 216 | > 256
isolate (source animal id): 223 | > 256
isolate (source animal id): 227 | > 256
isolate (source animal id): 229 | > 256
isolate (source animal id): 233 | > 256
isolate (source animal id): 234 | > 256
isolate (source animal id): 237 | > 256
isolate (source animal id): 241 | > 256
isolate (source animal id): 245 | > 256
isolate (source animal id): 247 | > 256
isolate (source animal id): 250 | > 256
isolate (source animal id): 254 | > 256
isolate (source animal id): 255 | > 256
isolate (source animal id): 258 | > 256
isolate (source animal id): 261 | > 256
isolate (source animal id): 262 | > 256
isolate (source animal id): 269 | > 256
isolate (source animal id): 270 | > 256
isolate (source animal id): 274 | > 256
isolate (source animal id): 275 | > 256
isolate (source animal id): 276 | > 256
isolate (source animal id): 277 | > 256
isolate (source animal id): 278 | > 256
isolate (source animal id): 279 | > 256
isolate (source animal id): 280 | > 256
isolate (source animal id): 284 | > 256
isolate (source animal id): 285 | > 256
isolate (source animal id): 287 | > 256
isolate (source animal id): 290 | > 256
isolate (source animal id): 294 | > 256
isolate (source animal id): 295 | > 256
isolate (source animal id): 296 | > 256
isolate (source animal id): 307 | > 256
isolate (source animal id): 310 | > 256
isolate (source animal id): 311 | > 256
isolate (source animal id): 312 | > 256
isolate (source animal id): 313 | > 256
isolate (source animal id): 315 | > 256
isolate (source animal id): 316 | > 256
